Test results taken from patent US20070082858A1, “Methods and compositions for the prevention of toxic side effects of aminoglycoside medications” (priority 2004, published 2007).

Experiments:
[1] = system: MDCK cells; assay: GTTR uptake into MDCK cells under TRPV1 agonists/antagonists, cation channel blockers, cations and pH (30-60 seconds, 20° C., FATX fixation, confocal imaging); details: 0.5 or 5 mM La^+++ in HBSS pH 7.3, 30 seconds
Text: MDCK cells were used as a model system to test regulation of GTTR uptake by conditions known to produce or modify a cation current through the TRPV1 channel. Conditions tested were varying extracellular calcium concentrations, pH, specific agonists, specific antagonists, and the non-specific cation channel blocker Ruthenium Red. In addition, we pre-mixed PIP2 with GTTR to determine whether that anionic phospholipid, known to bind gentamicin, would alter GTTR uptake. All these assays were done at room temperature (20° C.), for 30 or 60 seconds, and using doses of GTTR of 5 to 10 μg/ml, which are far below the typical therapeutic level of <300 μg/ml. Buffers used for treatment were as described for each experiment. Cells were quickly washed to replace culture medium with treatment buffer, treated as indicated, washed again after treatment, fixed immediately with 4% formaldehyde and 0.5% Triton X-100 (FATX), and washed prior to imaging.
Methods: Cells were seeded into 8-well coverglass chambers at 3000 cells/well and grown for 5 days.
Cells were washed three times with the buffer to be used in the particular experiment, treated with GTTR and experimental variable for 30 or 60 seconds at 20° C., precluding endocytosis. Following treatment, cells were rinsed three times with buffer, then fixed and delipidated with 4% formaldehyde plus 0.5% Triton X-100 (FATX) for 45 minutes. Following fixation, cells were rinsed with PBS (Invitrogen, CA) for at least 4-6 times, or until foaming in the suction pipette ceased. In contrast to previous experiments, no FBS was present in the treatment media, allowing for more rapid uptake of the antibiotic-based GTTR.
MDCK cells were washed with Hank's buffered salt solution (HBSS; Invitrogen, CA), then placed into buffers of varying potassium concentrations. HBSS was mixed with equi-osmolar KCl/HBSS to produce the required K^+ concentrations. Cells were treated with 1 μg/mL GTTR for 1 minute, then washed and fixed as described above.
Cells were washed with PBS (Invitrogen, CA), then placed into buffers containing varying concentrations of calcium, obtained by mixing HBSS with equimolar CaCl2, each at pH 7.3. Cells were treated with 5 μg/mL of GTTR for 30 seconds, then washed and fixed as above.
Cells were washed with saline, then treated with 5 μg/mL of GTTR in saline buffers of varying pH for 30 seconds, then washed and fixed as above. Sodium hydroxide and hydrochloric acid were used to alter pH. These experiments were performed in three different saline buffers: (i) PBS (no calcium), (ii) a mixture of […] for a final calcium concentration of 0.32 mM, and (iii) a mixture of three parts PBS to one part HBSS for a final calcium concentration of 0.97 mM.
Cells were washed three times with Ca^++-free saline (0.9% NaCl), then treated with 5 μg/mL GTTR and one of the following for 30 seconds: TRPV1 agonists (resiniferatoxin [RTX]; or anandamide [AND]; Alexis Biochemicals, San Diego, Calif.); or antagonists (iodo-RTX, or SB 366791; Tocris, Ellisville, Mo.). Cells were then washed in saline and fixed as above.
Cells were washed three times with Ca^++-free 0.9% NaCl, then treated with 5 μg/mL GTTR and one of the following for 30 seconds: 100 μM Ruthenium Red, 100 μM Ruthenium Red plus one of the TRPV1 agonists or antagonists described above; or lanthanum (La^+++) at 0.5 or 5 mM.

[2] = system: MDCK cells; assay: Gentamicin immunolabeling of MDCK cells incubated with unlabeled gentamicin and La^+++; format: cell-based, canine; details: 0.05, 0.5 and 5 mM La^+++, unlabeled gentamicin 30 seconds
Protocol: […] Cells were rinsed twice with PBS, fixed with 4% FA, then permeabilized with ice-cold methanol for 5 minutes, and rinsed 3 times with PBS, as described previously (Steyger et al., 2003). Cells were immunoblocked in 10% goat serum in PBS for 30 minutes, and then incubated with 50 μg/mL rabbit anti-gentamicin IgG (American Quaalex, San Clemente, Calif.) for 1 hour. After washing with 1% goat serum in PBS, cells were further incubated with 20 μg/mL Alexa-488-conjugated goat-anti-rabbit IgG antisera (Molecular Probes, Eugene, Oreg.) for 45 minutes, washed, post-fixed with 4% FA for 15 minutes, and washed again. For immunocytochemical controls, the primary IgG were omitted, or adsorbed with excess gentamicin (3 mg/mL) for 30 minutes prior to addition to cells. All wells were imaged using confocal microscopy.

[3] = system: bullfrog saccular explants; assay: GTTR labeling of bullfrog saccular explants in vitro (specificity, Example 6); format: cell-based, Rana catesbeiana; details: 300 μg/ml GTTR plus 40-fold excess unconjugated GT (12 mg/ml), 30 minutes
Protocol: Gentamicin sulfate (Sigma; 50 mg/ml in K2CO3, pH 9) and succinimidyl esters of Texas Red (Molecular Probes; 2 mg/ml in dimethyl formamide) were agitated together overnight to produce a gentamicin-Texas red conjugate (GTTR). Typically, 4.4 ml of 50 mg/ml (final volume) gentamicin sulfate (GT) was mixed with 0.6 ml of 2 mg/ml Texas Red esters (TR) to produce an approximately 300:1 molar ratio of GT:GTTR. A high ratio of free gentamicin to TR esters ensures a minimum of unbound TR molecules, and a binding ratio of 1 TR molecule to 1 GT molecule (Sandoval et al. 1998). Gentamicin sulfate has three isoforms with molecular weights of […], (C2) 463.5, and (C1a) 477.6. Texas Red succinimidyl esters have a molecular weight of 817. […]
For confocal microscopy, excised saccular explants were individually pre-loaded (for 40 minutes) with 50 μM MitoTracker, 50 nM Lysotracker Green, 1 μM NBD-ceramide and 1 μM ERtracker (Molecular Probes) in Wolfe-Quimby amphibian culture media to label lysosomes, Golgi bodies and endoplasmic reticulum, respectively, prior to incubation with 300 μg/ml GT/GTTR for 2 hours. […] For immunocytochemistry of gentamicin, explants were incubated with 300 μg/ml unconjugated gentamicin for 30 minutes or 2 hours, fixed, ice-cold acetone-permeabilized, and processed for indirect fluorescence immunocytochemistry. […]

[4] = system: OK cells; assay: GTTR uptake, saturability, time and temperature in OK cells; format: cell-based, opossum
Protocol: (§1) Both OK and MDCK cells were used in these studies. Both cell lines were treated with GTTR at 1 μg/ml in complete culture medium for two hours at either 37° C. or over ice. These cells were also treated with a dose range of 0 to 4000 μg/ml of unlabeled GT. Cells were washed and imaged live, then fixed with FATX, and washed again with buffer prior to re-imaging (as in FIG. 6, A3). […] Thus, cytoplasmic, but not endosomal, uptake of GTTR was saturable.
(§2) GTTR treatment: Subconfluent MDCK or OK cells were treated with 1 μg/mL of GTTR, in complete medium, for 2 hours at 37° C. or on ice. (The amount of GTTR is expressed as the weight of the gentamicin moiety within the conjugate.) In competition experiments, MDCK cells were simultaneously treated with unlabeled gentamicin (up to 4 mg/mL) for 2 hours.
(§3) Fixation, delipidation, and washing: After treatment, cells were washed three times with complete medium, and then immediately imaged live (see below; FIG. 27A), or fixed. […] Alternatively, cells were fixed in 4% formaldehyde alone (FA), washed and imaged (FIG. 27C), prior to delipidated with 0.5% Triton X-100 in PBS, washed thoroughly, and imaged again (FIG. 27D). Control cells were incubated with hydrolyzed TR (at the same concentration as the TR moiety in the GTTR experiments) and then imaged live, or fixed, delipidated, washed and then imaged.
Both OK and MDCK cells were treated with GTTR at 1 μg/mL in complete culture medium for 2 hours at either 37° C. or over ice. These cells were also treated with a dose range of 0 to 4000 μg/mL of unlabeled GT. Cells were washed and imaged live (as in FIG. 27A), then fixed with FATX, and washed again with PBS prior to re-imaging (as in FIG. 27B). […]
OK cells were treated with 1 μg/mL of GTTR in complete culture medium, at 37° C. or on ice, for increasing time periods. […] (Note that live images were acquired without washing out GTTR from the extracellular medium, so fluorescence is visible outside the cells.) No endosomes were observed on OK cells treated on ice for 2 hours (FIG. 28, B1 inset). […]

[5] = system: MDCK cells; assay: GTTR uptake, distribution and saturability in MDCK cells (2 hours); format: cell-based, canine
Protocol: MDCK cells were treated with 1 μg/ml purified GTTR for […] in complete medium at 37° C., then washed 3× with complete medium.
as §1, §2
as §3, with “Control cells were incubated with hydrolyzed TR (at the same concentration as the TR moiety in the GTTR experiments) and then imaged live, or fixed, delipidated, washed and then imaged.” left out

[6] = system: MDCK kidney cell line; assay: Fluorescent microplate assay quantifying GTTR uptake; format: cell-based, canine; details: 37° C. for two hours or room temperature for ten minutes
Text: A fluorescent microplate assay was developed using the MDCK kidney cell line to quantify the modulation of GTTR uptake by agonists/antagonists of the TRVP1 channel (pH, Ca^2+, RTX, and iodo-RTX).

Row | Molecule | GTTR uptake [1] | intensity of gentamicin immunofluorescence (unconjugated gentamicin uptake) [2] | GTTR fluorescence in saccular explants [3] | cytoplasmic and nuclear GTTR ([4]; OK cells, 1 μg/ml GTTR 2 hours, 37° C. or ice, unlabeled GT 0 to 4000 μg/ml) | cell morphology ([4]; OK cells, 4 mg/mL gentamicin, 2 hours) | endosomal (vesicular) accumulation of GTTR ([4]; live cells at 37° C., highest dose of unlabeled GT (4 mg/ml)) | cytoplasmic and nuclear GTTR ([5]; 1 μg/ml GTTR 2 hours, 37° C. or ice, unlabeled GT 0 to 4000 μg/ml) | cell morphology ([5]; 4 mg/mL gentamicin, 2 hours) | GTTR uptake (quantitative microplate fluorescence) [6]
1 | [La+3] [La^+++, Lanthanum] | serially decreased | serially decreased | – | – | – | – | – | – | –
2 | gentamicin [unlabeled GT] | – | – | reduced fluorescence in the sensory epithelium | serially reduced the amount of GTTR | flattening of cells | not visibly altered | serially reduced the amount of GTTR | flattening of cells | reduced GTTR uptake
